Consider 10 compounds from ChEMBL document CHEMBL1201862, “PubChem BioAssay data set” (2004).

Among the test systems are OVCAR-5; NCI-H226; RXF 393; LOX IMVI; OVCAR-3; NCI-H23; Malme-3M; OVCAR-4; PC-3; HOP-92; SK-MEL-2; K562; SK-OV-3; SF-268; SK-MEL-5; UO-31; 786-0; HCT-116; A549; HT-29.
Common to all, as to assay: NCI anticancer screen, dose series, 48 h

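Values below derive from 48-hour exposures of cells grown in 96-well plates, with endpoints linearly interpolated between the two concentrations bracketing the appropriate inhibition level. Abbreviation: GI50, concentration required for 50% inhibition of growth.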 Activity calls are given as the source filed them. Rule as the data show it: active = GI50 up to about 1.1 µM and inactive = higher. Where only a bound is given, the exact number is not on record here.

Take `COc1ccc2nc3c([N+](=O)[O-])ccc(NCCN(C)C)c3c(N)c2c1`: the GI50 in the experiment with OVCAR-5 was 1.52 µM (inactive); with NCI-H226, 1.97 µM (inactive); in the experiment on RXF 393, 1.57 µM (inactive); in the experiment with LOX IMVI it was 0.537 µM (active); in the experiment with OVCAR-3 it was 0.562 µM (active); in the experiment on NCI-H23, 1.69 µM (inactive). Besides, the GI50 in the experiment with Malme-3M is 1.34 µM (inactive); in the experiment with OVCAR-4, 1.24 µM (inactive); in the experiment on PC-3, 1.46 µM (inactive); in the experiment on HOP-92, 0.695 µM (active); in the experiment with SK-MEL-2 it was 2.37 µM (inactive); with K562, 0.223 µM (active). The GI50 with SK-OV-3 was 1.61 µM (inactive); in the experiment with SF-268 it was 1.34 µM (inactive); in the experiment on SK-MEL-5 it was 1.81 µM (inactive); with UO-31 it was 1.35 µM (inactive); in the experiment with 786-0, 1.18 µM (inactive); in the experiment on HCT-116 it was 0.145 µM (active). In addition, the GI50 in the experiment on A549 is 1.55 µM (inactive); with HT-29, 0.508 µM (active).

Take `CC1(C)NC(C)(C)/C(=N\O)C(=NO)/C1=N/O`: the GI50 in the experiment on OVCAR-5, in the experiment on NCI-H226, with RXF 393, in the experiment on LOX IMVI, in the experiment with OVCAR-3 and in the experiment on NCI-H23 was > 100 µM (inactive) throughout. The GI50 in the experiment with Malme-3M, in the experiment on OVCAR-4, in the experiment on PC-3, in the experiment on HOP-92, in the experiment on SK-MEL-2 and in the experiment on K562 was > 100 µM (inactive) in each case. For the same compound, the GI50 with SK-OV-3, in the experiment on SF-268, in the experiment on SK-MEL-5, with UO-31, in the experiment on 786-0 and with HCT-116 was > 100 µM (inactive) each time. The GI50 with A549 and with HT-29 was > 100 µM (inactive) in each case.

Regarding `CSC1(SC2=NCCN2)SC2(NCCN2)S1`, the GI50 in the experiment on OVCAR-5 is 19.5 µM (inactive); with NCI-H226, 27.2 µM (inactive); in the experiment on RXF 393, 7.53 µM (inactive); in the experiment on LOX IMVI it was 10.5 µM (inactive); in the experiment with OVCAR-3, 15.8 µM (inactive); in the experiment with NCI-H23 it was 16.3 µM (inactive). Also, the GI50 is 17.6 µM (inactive) in the experiment on Malme-3M; 20.4 µM (inactive) with OVCAR-4; 18.5 µM (inactive) in the experiment with PC-3; 13.5 µM (inactive) in the experiment on HOP-92; 19.2 µM (inactive) with SK-MEL-2; 12.5 µM (inactive) in the experiment with K562. For the same compound, the GI50 in the experiment on SK-OV-3 was 21.6 µM (inactive); in the experiment with SF-268, 18.2 µM (inactive); with SK-MEL-5, 18.9 µM (inactive); in the experiment with UO-31, 17.3 µM (inactive); with 786-0, 3.86 µM (inactive); in the experiment with HCT-116 it was 17 µM (inactive). Moreover, the GI50 was 20.3 µM (inactive) in the experiment with A549 and 18.7 µM (inactive) in the experiment on HT-29.

On to `COc1ccc(/C=C/c2cc(O)cc(OC3OC(CO)C(O)C(O)C3O)c2)cc1O` (stereo unspecified), for which the GI50 was 67.1 µM (inactive) in the experiment with OVCAR-5; > 100 µM (inactive) in the experiment with NCI-H226; > 100 µM (inactive) with RXF 393; > 100 µM (inactive) with LOX IMVI; > 100 µM (inactive) in the experiment on OVCAR-3; 67.1 µM (inactive) in the experiment with Malme-3M. In addition, the GI50 with OVCAR-4 was > 100 µM (inactive); in the experiment with PC-3, 49.2 µM (inactive); in the experiment on HOP-92 it was > 100 µM (inactive); in the experiment with SK-MEL-2 it was > 100 µM (inactive); in the experiment with K562, 45.1 µM (inactive); with SK-OV-3, > 100 µM (inactive). Besides, the GI50 in the experiment on SF-268 is 42.6 µM (inactive); in the experiment with SK-MEL-5, > 100 µM (inactive); with UO-31, 19.2 µM (inactive); in the experiment on 786-0, > 100 µM (inactive); in the experiment on HCT-116, 68.7 µM (inactive); in the experiment with A549, 69.2 µM (inactive). In addition, the GI50 in the experiment on HT-29 is > 100 µM (inactive).

`CO[C@H]1C[C@H](O[C@H]2CC[C@@]3(C)[C@H](CC[C@@H]4[C@@H]3CC[C@]3(C)[C@@H](C5=CC(=O)OC5)CC[C@]43O)C2)O[C@H](C)[C@H]1O`: the GI50 is < 0.0149 µM (active) in the experiment on OVCAR-5; < 0.0184 µM (active) in the experiment on NCI-H226; < 0.01 µM (active) in the experiment on RXF 393; < 0.01 µM (active) with LOX IMVI; < 0.01 µM (active) in the experiment with OVCAR-3; < 0.01 µM (active) in the experiment on NCI-H23. Moreover, the GI50 was < 0.01 µM (active) with Malme-3M; < 0.01 µM (active) in the experiment with OVCAR-4; < 0.01 µM (active) in the experiment with PC-3; < 0.01 µM (active) with HOP-92; 0.0151 µM (active) in the experiment with SK-MEL-2; < 0.01 µM (active) in the experiment on K562. Besides, the GI50 with SK-OV-3 was < 0.0113 µM (active); in the experiment on SF-268, < 0.01 µM (active); in the experiment on SK-MEL-5, < 0.01 µM (active); in the experiment on UO-31 it was < 0.01 µM (active); in the experiment with 786-0, < 0.01 µM (active); in the experiment on HCT-116, < 0.01 µM (active). Moreover, the GI50 in the experiment with A549 and in the experiment with HT-29 was < 0.01 µM (active) each time.

As to `COc1ccc(N2C(=O)C(Cl)C2c2cc3cc(Br)ccc3nc2Cl)cc1` (stereo unspecified), the GI50 in the experiment on OVCAR-5 is 7.96 µM (inactive); in the experiment with NCI-H226, 5.62 µM (inactive); in the experiment on RXF 393 it was 4.09 µM (inactive); in the experiment on LOX IMVI, 0.838 µM (active); with OVCAR-3, 8.45 µM (inactive); with NCI-H23, 5.98 µM (inactive). Further, the GI50 in the experiment on Malme-3M was 4.94 µM (inactive); in the experiment on OVCAR-4, 4.36 µM (inactive); in the experiment on PC-3, 7.13 µM (inactive); with HOP-92, 8.38 µM (inactive); in the experiment on SK-MEL-2, 5.12 µM (inactive); in the experiment on K562, 7.24 µM (inactive). The GI50 with SK-OV-3 is 16.6 µM (inactive); in the experiment with SF-268, 6.38 µM (inactive); in the experiment with SK-MEL-5, 4.37 µM (inactive); with UO-31, 0.701 µM (active); in the experiment with 786-0 it was 6.17 µM (inactive); with HCT-116 it was 4.68 µM (inactive). The GI50 with A549 is 11 µM (inactive); in the experiment with HT-29 it was 4.68 µM (inactive).

On to `Nc1nc(N)nc(CC(=O)O)n1`, for which the GI50 in the experiment on OVCAR-5, with NCI-H226, in the experiment on RXF 393, with LOX IMVI, with OVCAR-3 and in the experiment with NCI-H23 was > 100 µM (inactive) each time. For the same compound, the GI50 with Malme-3M, with OVCAR-4, in the experiment with PC-3, in the experiment with HOP-92, in the experiment on SK-MEL-2 and in the experiment on K562 was > 100 µM (inactive) each time. Also, the GI50 in the experiment with SK-OV-3, in the experiment on SF-268, in the experiment with SK-MEL-5, with UO-31, with 786-0 and with HCT-116 was > 100 µM (inactive) in each case. For the same compound, the GI50 with A549 and in the experiment with HT-29 was > 100 µM (inactive) in each case.

In the case of `C=CC(C)CCC(C/C=C(\C)CCCC(C)C)C(=C)CCCC(C)C` (stereo unspecified), the GI50 with OVCAR-5, with NCI-H226, with RXF 393, in the experiment on LOX IMVI, with OVCAR-3 and in the experiment with NCI-H23 was > 100 µM (inactive) in each case. The GI50 with Malme-3M, in the experiment on OVCAR-4, with PC-3, with HOP-92, in the experiment with SK-MEL-2 and with K562 was > 100 µM (inactive) throughout. In addition, the GI50 in the experiment with SK-OV-3, in the experiment with SF-268, in the experiment with SK-MEL-5, in the experiment with UO-31, in the experiment with 786-0 and with HCT-116 was > 100 µM (inactive) each time. The GI50 in the experiment on A549 was > 100 µM (inactive).

In the case of `c1ccc(SC(Sc2ccccc2)c2ccc3c(c2)OCO3)cc1`, the GI50 is > 100 µM (inactive) in the experiment with OVCAR-5; 23.6 µM (inactive) in the experiment with NCI-H226; > 100 µM (inactive) in the experiment with RXF 393; > 100 µM (inactive) with LOX IMVI; 60.3 µM (inactive) with OVCAR-3; > 100 µM (inactive) with NCI-H23. Besides, the GI50 in the experiment with Malme-3M was > 100 µM (inactive); with OVCAR-4 it was > 100 µM (inactive); in the experiment on PC-3 it was > 100 µM (inactive); in the experiment on HOP-92 it was 16.3 µM (inactive); with SK-MEL-2, > 100 µM (inactive); in the experiment with K562 it was > 100 µM (inactive). In addition, the GI50 with SF-268 is 93.1 µM (inactive); in the experiment on SK-MEL-5, > 100 µM (inactive); with UO-31 it was > 100 µM (inactive); in the experiment with 786-0, > 100 µM (inactive); with HCT-116 it was > 100 µM (inactive); in the experiment on A549, > 100 µM (inactive). Moreover, the GI50 with HT-29 is 65.2 µM (inactive).

On to `CC(C)(C)O/N=C/c1cc(NC(=S)c2ccsc2)ccc1Cl`, for which the GI50 is 17.7 µM (inactive) in the experiment on OVCAR-5; 14 µM (inactive) with NCI-H226; 14.1 µM (inactive) in the experiment on RXF 393; 16 µM (inactive) in the experiment on LOX IMVI; 14.9 µM (inactive) with OVCAR-3; 7.41 µM (inactive) with NCI-H23. The GI50 with Malme-3M is 14.3 µM (inactive); in the experiment on OVCAR-4 it was 14.6 µM (inactive); in the experiment on PC-3, 13 µM (inactive); in the experiment on HOP-92 it was 19.1 µM (inactive); with SK-MEL-2 it was 16 µM (inactive); in the experiment on SK-OV-3, 18.7 µM (inactive). Further, the GI50 with SF-268 was 16 µM (inactive); in the experiment with SK-MEL-5 it was 3.99 µM (inactive); in the experiment with UO-31 it was 12.2 µM (inactive); in the experiment with 786-0 it was 16.2 µM (inactive); in the experiment on HCT-116, 11.4 µM (inactive); in the experiment with A549, 17.5 µM (inactive). In addition, the GI50 in the experiment with HT-29 was 13.3 µM (inactive).
